Assay results from patent publication US20260191933A1, “PHARMACEUTICAL COMBINATIONS AND USES THEREOF” (The University of Melbourne, priority 2022, published 2026).

What was measured:
[1] = system: ARC insulin receptor signalling (pAKT); assay: I.C.V. PZ6005 and/or S.C. liraglutide: ARC pAKT +ve. cells after insulin; format: in vivo, C57BL/6j mice; settings: after 28-day treatment; compared with liraglutide alone group
Procedure: (§1) Mice were injected intraperitoneally with vehicle (PBS) or insulin (3 mU/g, i.p., Actrapid, Nova Nordisk, Denmark) and mice were transcardially perfused (as described above) 15 min with 10% neutral buffered formalin. The brains were post-fixed for 16 h on a rocking platform at RT and then kept for two days in 30% sucrose in PBS to cryoprotect the tissue, before freezing on dry ice. 30 μm sections were cut in the coronal plane throughout the entire rostral-caudal extent of the hypothalamus. Sections were pre-treated for 10 mins in 0.3% glycine, washed in PBS-T and incubated for 10 min in 0.03% SDS. Sections were then blocked in 5% blocking buffer for 1 h at RT and incubated for 48 h with rabbit anti-p-AKT (Ser-473) (1:300; #4060, Cell Signaling Technology, Beverly, MA) in 1% blocking buffer. Sections were then incubated in 5% blocking buffer containing either goat anti-rabbit Alexa Fluor 647 (ab150083, Abcam, Cambridge, UK) or biotinylated goat anti-rabbit (BA-1000, Vector Laboratories, CA, no sodium azide in blocking buffer). […]

diet-induced obese mice = assay: I.C.V. PZ6005 and/or S.C. liraglutide: I.P. GTT; format: in vivo, C57BL/6j mice; settings: day 14; 6 hours fasted; compared with the control treatment
Procedure: Metabolic measurements were undertaken in the Melbourne Mouse Metabolic Phenotyping Platform (The University of Melbourne, Australia). Glucose tolerance tests were performed on 6 h fasted conscious mice respectively by injecting D-glucose (2 mg/g of lean body mass and 1 mg/g lean mass for db/db and HFHS+STZ mice) into the peritoneal cavity and measuring glucose in tail blood immediately before and at 15, 30, 45, 60, 90 and 120 min after injection using an Accu-Check glucometer (Roche, Germany). The areas under glucose excursion curves were determined and expressed as mmol/l×min. Fasted (12 h fast) plasma insulin or glucose levels were determined using a Rat/Mouse Insulin ELISA (EZRMI-13K, Merck Millipore, CA) or an Accu-Check glucometer respectively. The HOMA-IR was calculated using the equation [(glucose×insulin)/405]. Adiposity was measured using TD-NMR minispec (Bruker Optics Inc., Billerica, MA).

[2] = system: 12-week HFHS fed obese mice; assay: Example 21: 14-day treatment and off-treatment phase, weight rebound, body composition, metabolic rate, food intake; format: in vivo, C57BL/6J male mice
Procedure: To induce diet-induced obesity in adulthood, the mice were ad libitum access to water and high-fat-high-sugar (HFHS) diet (43% of total energy from fat, SF04-001, Speciality Feeds, Australia) starting at eight weeks of age for 12 weeks. Aged-matched chow-fed C57BL/6J male mice were ad libitum access to standard chow diet throughout full duration of the experiment.
Mice adiposity and lean mass were measured via the TD-NMR minispec (Bruker Optics Inc., USA) acquiring EchoMRI-900 Body Composition Analyser (EchoMRI LLC, USA). Interscapular brown adipose tissue, inguinal and epidermal white adipose tissues and the liver were weighed to determine tissue-specific adiposity.
At day 15, treatments were discontinued however all groups continued to receive ad libitum access to HFHS diet to assess the rebound following treatment cessation.

[3] = system: insulin receptor signalling within the ARC (pAKT); assay: Intranasal PZ6005: ARC pAKT +ve. cells after insulin; format: in vivo, C57BL/6J mice; settings: both doses, 14-day intranasal administration
Procedure: as §1

CSPG-ECM (neurofibrosis) = assay: I.C.V. fluorosamine in obese mice: CSPG-ECM expression (WFA immunostaining); format: in vivo, C57BL/6J mice
Procedure: All image quantification was performed in Image J (NIH) software (NIH, MA). Raw images underwent background subtraction using a rolling ball algorithm to minimize background and any potential variance in tissue autofluorescence. To quantify area and intensity of the CSPG-ECM within each brain region (ARC, VMH or RSG cortex) images were thresholded and binarized to create a region of interest (ROI) mask of only the CSPG-ECM. For each brain area, CSPG-ECM ROI area (μm^2) and intensity (sum of all pixel intensities within the ROI) was calculated. This process was automated to minimise bias and to account for differences in brain nuclei size across multiple images. Brain nuclei were defined in accordance with the Paxinos and Franklin mouse brain atlas (http://labs.gaidi.ca/mouse-brain-atlas/). The area and intensity of CSPG-ECM within each region was normalised to the respective control.
Under isoflurane anaesthetic 12-week HFHS fed C57BL/6J or AgRP-Cas9 mice were implanted stereotaxically with guide cannulas into the right lateral ventricle (0.2 mm posterior, 1.0 mm lateral from bregma). Guide cannula was positioned 1.3 mm above the injection site (1 mm ventral to the surface of the skull). AgRP-Cas9 mice were treated with either AAV-gScrambled or AAV-gIR and underwent guide cannula placement 7 days post AAV administration. Mice were administered I.C.V. vehicle (ddH2O), fluorosamine (100 μg/animal/day or 250 μgl/animal/day) in a volume of 2 μl/animal and all compounds were delivered approximately 1 h before lights off (7 pm).

`CC(=O)NC1C(OC(C)=O)OC(COC(C)=O)[C@@H](F)C1OC(C)=O` (some centres unmarked) [PZ6005, per-O-acetylated-4-F-N-acetylglucosamine] was tested, and the “ARC pAKT +ve. cells” value [1] was “more ARC pAKT +ve. cells”, the “glucose excursion (I.P. GTT)” value (diet-induced obese mice) was “reduced glucose excursion” and the “baseline fat mass, without affecting lean mass” value ([2]; 14 days after terminating treatments, compared to vehicle and liraglutide alone) was “significant decrease”. For the same compound, the “mean weight loss from baseline (day 0)” value ([2]; day 14, PZ6005 100 μg/animal I.C.V. every second day, liraglutide 200 μg/kg daily) was 15.08±1.45%, the liver mass ([2]; end of experiment, vs other littermates) was “lower liver mass” and the “day of return to baseline body weight” value ([2]; off-treatment phase) was 30.00 ± 1.72 days. For the same compound, the “oxygen consumption and whole-body energy expenditure” value ([2]; treatment phase, without effects on ambulatory activity) was “elevated”, the “ARC pAKT +ve. cells” value [3] was “robust increase” and the “CSPG-ECM expression in the habenula” value (CSPG-ECM (neurofibrosis); I.C.V., at the highest dose) was “only partially attenuated”. The “neurofibrosis within the ARC (WFA immunostaining)” value (CSPG-ECM (neurofibrosis); obese mice, I.C.V. daily for 10 days) was “significantly attenuated” and the “CSPG-ECM in other brain areas such as the RSG cortex” value (CSPG-ECM (neurofibrosis); obese mice, I.C.V. for 10 days) was “did not reduce”.
